Source: patent US20060069132A1, “Azolecarboxamide herbicides” (priority 2004, published 2006)

What was measured:
wheat (TRZAS) = experiment: Test J Compounds 2 and 6 alone and in combination with other herbicides, foliage spray; format: in vivo, Triticum aestivum; set-up: key: 0 = no effect, 100 = complete control; conditions: applied alone
From the text: (§1) Colby's Equation was used to calculate the expected additive herbicidal effect of the mixtures of Compound 6 with Harmony® Extra (i.e. a 2:1 mixture by weight of thifensulfuron-methyl and tribenuron-methyl). […]
(§2) Seeds of test plants consisting of barnyardgrass (ECHCG; Echinochloa crus-galli (L.) Beauv.), blackgrass (ALOMY; Alopecurus myosuroides Huds.), Surinam grass (BRADC; Urochloa decumbens (Staph) R. D. Webster, previously named Brachiaria decumbens Stapf), cocklebur (XANST, Xanthium strumarium L.), corn (ZEAMD, Zea mays L. cv. ‘Pioneer 33G26’), large crabgrass (DIGSA, Digitaria sanguinalis (L.) Scop.), giant foxtail (SETFA, Setaria faberi Herrm.), lambsquarters (CHEAL, Chenopodium album L.), morningglory (IPOCO, Ipomoea coccinea L.), pigweed (AMARE, Amaranthus retroflexus L.), velvetleaf (ABUTH, Abutilon theophrasti Medik.) wheat (TRZAS, Triticum aestivum L. cv. ‘Recital’) and wild oat (AVEFA, Avena fatua L.) were planted in Redi-Earth® planting medium (Scotts Company, 14111 Scottslawn Road, Marysville, Ohio 43041) comprising spaghnum peat moss and vermiculite. […] Also listed in Table J are the expected effects for the mixtures calculated using Colby's Equation.

Surinam grass (BRADC) = experiment: as above; format: in vivo, Urochloa decumbens; set-up: key to BRADC Obsd.: 0 = no effect, 100 = complete control; conditions: for BRADC Obsd.: applied alone; for observed effect of mixture compared with additive effect expected from Colby's Equation: Surinam grass, foliage spray, 15 days after treatment
From the text: Colby's Equation was used to calculate the expected additive herbicidal effect of the mixtures of Compound 6 with Harmony® Extra (i.e. a 2:1 mixture by weight of thifensulfuron-methyl and tribenuron-methyl). Colby's Equation (Colby, S. R. “Calculating Synergistic and Antagonistic Responses of Herbicide Combinations,” Weeds, 15(1), pp 20-22 (1967)) calculates the expected additive effect of herbicidal mixtures, and for two active ingredients is of the form: Pa+b=Pa+Pb−(PaPb/100) wherein • Pa+b is the percentage effect of the mixture expected from additive contribution of the individual components, • Pa is the observed percentage effect of the first active ingredient at the same use rate as in the mixture, and • Pb is the observed percentage effect of the second active ingredient at the same use rate as in the mixture.
Seeds of test plants consisting of barnyardgrass (ECHCG; Echinochloa crus-galli (L.) Beauv.), blackgrass (ALOMY; Alopecurus myosuroides Huds.), Surinam grass (BRADC; Urochloa decumbens (Staph) R. D. Webster, previously named Brachiaria decumbens Stapf), cocklebur (XANST, Xanthium strumarium L.), corn (ZEAMD, Zea mays L. cv. ‘Pioneer 33G26’), large crabgrass (DIGSA, Digitaria sanguinalis (L.) Scop.), giant foxtail (SETFA, Setaria faberi Herrm.), lambsquarters (CHEAL, Chenopodium album L.), morningglory (IPOCO, Ipomoea coccinea L.), pigweed (AMARE, Amaranthus retroflexus L.), velvetleaf (ABUTH, Abutilon theophrasti Medik.) wheat (TRZAS, Triticum aestivum L. cv. ‘Recital’) and wild oat (AVEFA, Avena fatua L.) were planted in Redi-Earth® planting medium (Scotts Company, 14111 Scottslawn Road, Marysville, Ohio 43041) comprising spaghnum peat moss and vermiculite. Seeds of small-seeded species were planted about 1 cm deep; larger seeds were planted about 2.5 cm deep. Plants were grown in a greenhouse using supplemental lighting to maintain a photoperiod of about 14 hours; daytime and nighttime temperatures were about 24-30° C. and 22-25° C., respectively. Balanced fertilizer was applied through the watering system. The plants were grown for 7 to 11 days so that at time of treatment the plants ranged in height from 2 to 18 cm (1- to 4-leaf stage). Treatments consisted of Compounds 2 and 6 (technical material), atrazine (90DF), terbacil (Sinbar® 80DF), hexazinone (Velpar® 75WG), diuron (Karmex® 80WP) and paraquat (Gramoxone® Extra, 37%) alone and in combination, suspended or dissolved in an aqueous solvent comprising a nonionic surfactant and applied as a foliage spray using a volume of 541 L/ha. Each treatment was triply replicated. […] Treated plants and controls were maintained in the greenhouse and watered as needed with care to not wet the foliage for the first 24 hours after treatment. The effects on the plants 15 days after treatment were visually compared to untreated controls. Plant response ratings, listed in Table J as the means of the thee replicates, are based on a scale of 0 to 100 where 0 is no effect and 100 is complete control. Also listed in Table J are the expected effects for the mixtures calculated using Colby's Equation.

giant foxtail (SETFA) = experiment: as above; format: in vivo, Setaria faberi; set-up: key: 0 = no effect, 100 = complete control; conditions: applied alone
From the text: as §2, with “vermiculite. Seeds of small-seeded species were planted about 1 cm deep; larger seeds were planted about 2.5 cm deep. Plants were grown in a greenhouse using supplemental lighting to maintain a photoperiod of about 14 hours; daytime and nighttime temperatures were about 24-30° C. and 22-25° C., respectively. Balanced fertilizer was applied through the watering system.” for “vermiculite.”

wild oat (AVEFA) = experiment: as above; format: in vivo, Avena fatua; set-up: key: 0 = no effect, 100 = complete control; conditions: applied alone
From the text: as §1, §2

large crabgrass (DIGSA) = experiment: as above; format: in vivo, Digitaria sanguinalis; set-up: key: 0 = no effect, 100 = complete control; conditions: applied alone
From the text: as §1, §2

winter barley = experiment: Test F pre-/postemergence herbicide test; format: in vivo, Hordeum vulgare
From the text: (§3) Seeds of plant species selected from annual blugrass (Poa annua L.), blackgrass (Alopecurus myosuroides Huds.), catchweed bedstraw (Gallium aparine L.), common chickweed (Stellaria media (L.) Vill./Cyr.), downy bromegrass (Bromus tectorum L.), green foxtail (Setaria viridis (L.) Beauv.), Italian ryegrass (Lolium multiflorum Lam.), kochia (Kochia scoparia (L.). Schrad.), lambsquarters (Chenopodium album L.), littleseed canarygrass (Phalaris minor Retz.), pigweed (Amaranthus retroflexus L.), Russian thistle (Salsola kali L. ssp. Ruthenica (Iljin) Soo), wild buckwheat (Polygonum convolvulus L.), wild mustard (Sinapis arvensis L.), wild oat (Avena fatua L.), windgrass (Apera spica-venti (L.) Beauv.), winter barley (Hordeum vulgare L.), and wheat (Triticum aestivum L.) were planted and treated preemergence with test chemicals formulated in a non-phytotoxic solvent mixture which included a surfactant.
(§4) At the same time, plants selected from these crop and weed species were treated with postemergence applications of some of the test chemicals formulated in the same manner. Plants ranged in height from 2 to 18 cm (1- to 4-leaf stage) for postemergence treatments. Treated plants and controls were maintained in a greenhouse for 12 to 14 days, after which time all species were compared to controls and visually evaluated. Plant response ratings, summarized in Table F, are based on a scale of 0 to 100 where 0 is no effect and 100 is complete control. A dash (-) response means no test result.

Italian ryegrass = experiment: Test F pre-/postemergence herbicide test; format: in vivo, Lolium multiflorum
From the text: as §3, §4

wheat = experiment: Test F pre-/postemergence herbicide test; format: in vivo, Triticum aestivum
From the text: as §3, §4

CCn1nc(C(C)(C)C)cc1C(=O)Nc1cc(C(=O)N(C)C)ccc1F [Compound 6, N-[5-[(dimethylamino)carbonyl]-2-fluorophenyl]-3-(1,1-dimethylethyl)-1-ethyl-1H-pyrazole-5-carboxamide] was tested, and the “TRZAS Obsd.” value (wheat (TRZAS); 62 g a.i./ha) was 15, the “TRZAS Obsd.” value (wheat (TRZAS); 125 g a.i./ha) was 30 and the “BRADC Obsd.” value (Surinam grass (BRADC); 62 g a.i./ha) was 15. For the same compound, the “BRADC Obsd.” value (Surinam grass (BRADC); 125 g a.i./ha) was 40, the “observed effect of mixture compared with additive effect expected from Colby's Equation” value (Surinam grass (BRADC); mixture with diuron) was “greater than additive” and the “observed effect of mixture compared with additive effect expected from Colby's Equation” value (Surinam grass (BRADC); mixture with diuron, listed as compound 6) was “synergistic activity”. For the same compound, the “observed effect of mixture compared with additive effect expected from Colby's Equation” value (Surinam grass (BRADC); mixture with hexazinone) was “greater than additive”, the “observed effect of mixture compared with additive effect expected from Colby's Equation” value (Surinam grass (BRADC); mixture with hexazinone, listed as compound 6) was “synergistic activity” and the “observed effect of mixture compared with additive effect expected from Colby's Equation” value (Surinam grass (BRADC); mixture with terbacil) was “greater than additive”. For the same compound, the “SETFA Obsd.” value (giant foxtail (SETFA); 62 g a.i./ha) was 15, the “SETFA Obsd.” value (giant foxtail (SETFA); 125 g a.i./ha) was 33 and the “AVEFA Obsd.” value (wild oat (AVEFA); 62 g a.i./ha) was 10. For the same compound, the “AVEFA Obsd.” value (wild oat (AVEFA); 125 g a.i./ha) was 25, the “DIGSA Obsd.” value (large crabgrass (DIGSA); 62 g a.i./ha) was 8 and the “DIGSA Obsd.” value (large crabgrass (DIGSA); 125 g a.i./ha) was 13.

With CCn1nc(C(C)(C)C)cc1C(=O)Nc1cc(C(=O)OC(C)C)c(F)cc1F [Compound 248] the “Plant response rating (0-100), Barley, Winter” value (“Plant response rating … Winter” below) (winter barley; Postemergence, 31 g ai/ha) was 25, the “Plant response rating … Winter” value (winter barley; Postemergence, 62 g ai/ha) was 30 and the “Plant response rating … Winter” value (winter barley; Postemergence, 125 g ai/ha) was 30. The “Plant response rating … Winter” value (winter barley; Postemergence, 250 g ai/ha) was 40, the “Plant response rating … Winter” value (winter barley; Preemergence, 31 g ai/ha) was 0 and the “Plant response rating … Winter” value (winter barley; Preemergence, 62 g ai/ha) was 0. The “Plant response rating … Winter” value (winter barley; Preemergence, 125 g ai/ha) was 0, the “Plant response rating … Winter” value (winter barley; Preemergence, 250 g ai/ha) was 35 and the “Plant response rating (0-100), Ryegrass, Italian” value (“Plant response rating … Italian” below) (Italian ryegrass; Postemergence, 31 g ai/ha) was 45. For the same compound, the “Plant response rating … Italian” value (Italian ryegrass; Postemergence, 62 g ai/ha) was 55, the “Plant response rating … Italian” value (Italian ryegrass; Postemergence, 125 g ai/ha) was 60 and the “Plant response rating … Italian” value (Italian ryegrass; Postemergence, 250 g ai/ha) was 65. The “Plant response rating … Italian” value (Italian ryegrass; Preemergence, 31 g ai/ha) was 30, the “Plant response rating … Italian” value (Italian ryegrass; Preemergence, 62 g ai/ha) was 50 and the “Plant response rating … Italian” value (Italian ryegrass; Preemergence, 125 g ai/ha) was 50. For the same compound, the “Plant response rating … Italian” value (Italian ryegrass; Preemergence, 250 g ai/ha) was 60, the “Plant response rating (0-100), Wheat” value (wheat; Postemergence, 31 g ai/ha) was 0 and the “Plant response rating (0-100), Wheat” value (wheat; Postemergence, 62 g ai/ha) was 5. For the same compound, the “Plant response rating (0-100), Wheat” value (wheat; Postemergence, 125 g ai/ha) was 5, the “Plant response rating (0-100), Wheat” value (wheat; Postemergence, 250 g ai/ha) was 20 and the “Plant response rating (0-100), Wheat” value (wheat; Preemergence, 31 g ai/ha) was 0. For the same compound, the “Plant response rating (0-100), Wheat” value (wheat; Preemergence, 62 g ai/ha) was 0, the “Plant response rating (0-100), Wheat” value (wheat; Preemergence, 125 g ai/ha) was 0 and the “Plant response rating (0-100), Wheat” value (wheat; Preemergence, 250 g ai/ha) was 10.
